The conditions of data set [1]: C57BL/6, mouse, 100 μg mL^−1, pH 7.4.
Another data set concerns blood glucose level. Nature of the data set: In vivo blood glucose level after insulin injection or insulin-loaded electrothermal patch. The note with it: IP or subcutaneous injection of insulin (0.032 UI, 1.12 μg), C57BL/6 mice.
For data set [2], the system named is Gram-negative E. coli K12. Put plainly: Minimum inhibitory concentration (MIC). Type of data set: cell-based. The note with it: Escherichia coli.
The nature of data set [3]: Skin permeation, static Franz diffusion cell, passive and electrothermally activated patch. The conditions noted are these: stock solution 100 μg mL^−1 for loading, mouse skin.
For data set [4] the following is noted: drug passed through and remained inside the excised skin; cited from earlier work.
[5] abbreviates: electrothermal activation 1 V, 10 min.

≈ marks a conversion by molar mass, not a printed value. Read-outs that look alike come from different tables or passages of the source.

In the case of `CN(C)C(=N)N=C(N)N` [metformin], the Flux active in data set [1] worked out at 4.68 μg cm^−2 h^−1.

For `Cn1c(=O)c2c(ncn2C)n(C)c1=O` [caffeine], in data set [1], the “Active, amount of drug permeated” value is 58 µg/mL; the Flux active is recorded as 15.09 μg cm^−2 h^−1; the Flux passive is 7.18 μg cm^−2 h^−1; the “Passive, amount of drug permeated” value is 28 µg/mL.

In the case of insulin, the “Time to therapeutic effect (change in blood glucose level)” value in the data set on blood glucose level is given as “about 15 min”.

For `COc1cccc2c1C(=O)c1c(O)c3c(c(O)c1C2=O)C[C@@](O)(C(=O)CO)C[C@@H]3O[C@H]1C[C@H](N)[C@H](O)[C@H](C)O1` [doxorubicin], in data set [1], the “Active, amount of drug permeated” value stood at 62 µg/mL; the Flux active is reported as 6.61 μg cm^−2 h^−1; the Flux passive came out at 0 μg cm^−2 h^−1; the “Passive, amount of drug permeated” value is 0 µg/mL.

As to `CO/N=C(\C(=O)N[C@@H]1C(=O)N2C(C(=O)[O-])=C(C[N+]3(C)CCCC3)CS[C@H]12)c1csc(N)n1` [cefepime], the minimal inhibitory concentration (MIC) – broadly, the lowest concentration found to suppress growth – in data set [2] is 10 ± 0.5 µg/mL (≈ 20.8 µM). For the same compound, in data set [3] (setting [5]), the “Active, amount of drug permeated” value was 18.3 µg/mL and the Flux active is given as 4.67 μg cm^−2 h^−1. Also, in data set [3] (passive, no activation), the Flux passive worked out at 0 μg cm^−2 h^−1 and the “Passive, amount of drug permeated” value amounted to 0 µg/mL.

With `O=c1[nH]cc(F)c(=O)[nH]1` [5-fluorouracil], in data set [1], the “Active, amount of drug permeated” value turned out to be 23.1 µg/mL; the Flux passive was found to be 0 μg cm^−2 h^−1; the “Passive, amount of drug permeated” value turned out to be 0 µg/mL. Further, in data set [4], the “Flux of 5-fluorouracil reported by Xie et al.” value was 1.64 μg cm^−2 h^−1.

In data set [2], `CC1(C)S[C@@H]2[C@H](NC(=O)[C@H](N)c3ccccc3)C(=O)N2[C@H]1C(=O)O` [ampicillin] yielded a minimal inhibitory concentration (MIC) of 10 ± 0.5 µg/mL (≈ 28.6 µM).

Values taken from patent US20220193384A1, “CUTANEOUS DEVICE FOR STORING AND RELEASING MOLECULES, AND CORRESPONDING METHOD” (priority 2019, published 2022).
